One test deals with T1, TYK2 (Homo sapiens, UniProt P29597).
T1 construct: endogenous in cells; host or cells: Molt4 (ATCC CRL-1582) and Ramos (ATCC CRL-1596), mixed lysate 1:2
Briefly: Kinobeads assay, TYK2. In kind it is binding. The conditions noted are these: mixed Molt4/Ramos lysate, read-out: Inhibition values (IC50) TYK2. In short, it runs like this: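 IC50s come from capture competition: compound at various concentrations versus an immobilized aminopyrido-pyrimidine ligand for kinases in 1:2 Molt4/Ramos lysate (10 mg/mL), 3 h in a cold room. Captured JAK-family kinases were measured by specific-antibody dot blot with Odyssey infrared detection.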

The target in the next test is T2, JAK1 (Homo sapiens, UniProt P23458).
T2 construct: endogenous in cells; host or cells: Molt4 (ATCC CRL-1582) and Ramos (ATCC CRL-1596), mixed lysate 1:2
T2 sequence (P23458 whole entry): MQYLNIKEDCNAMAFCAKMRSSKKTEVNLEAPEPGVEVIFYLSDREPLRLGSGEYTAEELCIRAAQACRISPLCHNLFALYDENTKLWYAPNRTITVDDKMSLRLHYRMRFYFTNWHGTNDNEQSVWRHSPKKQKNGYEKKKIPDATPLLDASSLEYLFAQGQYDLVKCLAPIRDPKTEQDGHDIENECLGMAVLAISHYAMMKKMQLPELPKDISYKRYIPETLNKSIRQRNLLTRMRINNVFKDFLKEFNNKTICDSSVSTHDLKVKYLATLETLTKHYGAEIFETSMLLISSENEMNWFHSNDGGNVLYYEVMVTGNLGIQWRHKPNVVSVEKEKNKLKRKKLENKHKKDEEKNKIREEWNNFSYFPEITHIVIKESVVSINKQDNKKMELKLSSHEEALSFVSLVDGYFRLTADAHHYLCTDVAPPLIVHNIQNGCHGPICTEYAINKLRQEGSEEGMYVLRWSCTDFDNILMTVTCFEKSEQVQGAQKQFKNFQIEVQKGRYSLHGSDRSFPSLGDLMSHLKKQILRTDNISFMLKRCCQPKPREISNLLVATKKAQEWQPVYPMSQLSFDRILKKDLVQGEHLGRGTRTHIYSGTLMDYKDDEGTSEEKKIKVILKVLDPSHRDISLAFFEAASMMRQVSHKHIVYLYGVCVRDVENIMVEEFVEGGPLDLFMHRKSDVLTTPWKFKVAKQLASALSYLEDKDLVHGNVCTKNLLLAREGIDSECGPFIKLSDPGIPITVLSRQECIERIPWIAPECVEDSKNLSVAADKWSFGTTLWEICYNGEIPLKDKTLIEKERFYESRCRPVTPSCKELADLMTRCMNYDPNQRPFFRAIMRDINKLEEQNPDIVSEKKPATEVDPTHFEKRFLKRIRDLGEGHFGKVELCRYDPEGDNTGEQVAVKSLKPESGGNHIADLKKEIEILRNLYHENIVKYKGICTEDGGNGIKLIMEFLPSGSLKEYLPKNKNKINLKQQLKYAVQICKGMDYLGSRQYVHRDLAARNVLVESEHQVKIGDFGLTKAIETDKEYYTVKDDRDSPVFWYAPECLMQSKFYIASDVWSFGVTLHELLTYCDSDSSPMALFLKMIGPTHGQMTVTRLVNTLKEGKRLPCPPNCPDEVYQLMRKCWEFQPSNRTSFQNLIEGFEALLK
Briefly: Kinobeads assay, JAK1. The conditions noted are these: mixed Molt4/Ramos lysate, read-out: Inhibition values (IC50) JAK1. In kind it is binding. In short, it runs like this: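 Competitive pulldown in combined Molt4 and Ramos lysates (1 vs 2 volumes): compound, as a nine-point 1:3 series, and kinobeads were shaken together for 3 hours in a cold room. Captured JAK1 was quantified on an infrared-read antibody dot blot and IC50 calculated. Controls held 2% DMSO without compound.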

T1 sequence (P29597 whole entry): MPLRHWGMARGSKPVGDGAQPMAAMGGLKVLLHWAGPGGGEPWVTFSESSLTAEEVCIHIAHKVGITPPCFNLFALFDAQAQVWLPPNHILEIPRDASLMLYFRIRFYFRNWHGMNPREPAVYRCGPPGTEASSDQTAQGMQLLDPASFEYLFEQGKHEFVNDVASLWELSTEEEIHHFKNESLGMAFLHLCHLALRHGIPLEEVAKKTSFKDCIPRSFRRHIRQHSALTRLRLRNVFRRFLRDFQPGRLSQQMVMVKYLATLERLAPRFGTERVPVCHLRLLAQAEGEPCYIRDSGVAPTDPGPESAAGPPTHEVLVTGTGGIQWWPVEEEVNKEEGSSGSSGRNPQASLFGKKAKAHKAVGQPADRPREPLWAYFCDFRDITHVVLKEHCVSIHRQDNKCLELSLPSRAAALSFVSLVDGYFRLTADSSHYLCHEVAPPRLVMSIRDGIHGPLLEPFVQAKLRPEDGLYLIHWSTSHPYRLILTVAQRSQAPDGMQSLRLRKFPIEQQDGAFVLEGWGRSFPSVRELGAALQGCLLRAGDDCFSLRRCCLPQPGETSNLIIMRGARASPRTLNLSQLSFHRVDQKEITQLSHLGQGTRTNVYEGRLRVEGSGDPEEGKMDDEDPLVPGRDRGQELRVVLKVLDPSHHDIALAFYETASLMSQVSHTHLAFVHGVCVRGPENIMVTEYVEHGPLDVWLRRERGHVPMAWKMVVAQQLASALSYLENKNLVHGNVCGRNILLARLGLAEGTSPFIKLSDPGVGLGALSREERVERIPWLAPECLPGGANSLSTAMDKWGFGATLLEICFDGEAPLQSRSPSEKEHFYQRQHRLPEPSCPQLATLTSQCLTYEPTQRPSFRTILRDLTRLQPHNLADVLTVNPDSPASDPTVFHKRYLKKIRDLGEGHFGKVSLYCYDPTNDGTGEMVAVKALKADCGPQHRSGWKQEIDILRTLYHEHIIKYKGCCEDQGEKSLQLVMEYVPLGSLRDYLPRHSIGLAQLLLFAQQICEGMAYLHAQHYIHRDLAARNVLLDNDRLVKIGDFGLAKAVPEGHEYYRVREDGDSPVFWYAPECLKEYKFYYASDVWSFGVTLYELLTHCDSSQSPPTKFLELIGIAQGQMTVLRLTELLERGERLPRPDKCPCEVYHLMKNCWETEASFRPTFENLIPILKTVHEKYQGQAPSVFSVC

For `Cn1cc(Nc2ncc(F)c(N[C@H](CO)c3ccccc3)n2)cn1` [Compound 3], the IC50 at TYK2 and on JAK1 was 1 to 10 µM each time.

For the compound `Cn1cc(Nc2ncc(Cl)c(N[C@H](CO)c3cccc(F)c3)n2)cn1` [Compound 85], the concentration for half-maximal inhibition (IC50) on TYK2 and on JAK1 was 0.1 to 1 µM in each case.

`OCCn1cc(Nc2ncc(Cl)c(N[C@H](CO)c3cccc(F)c3)n2)cn1` [Compound 86]: the IC50 at TYK2 and on JAK1 was 0.1 to 1 µM throughout.

Regarding `NC(=O)Cn1cc(Nc2ncc(Cl)c(N[C@H](CO)c3cccc(F)c3)n2)cn1` [Compound 87], the IC50 (commonly the concentration that inhibits the measured activity by half) at TYK2 was 0.1 to 1 µM; at JAK1, < 0.1 µM.

With `OC[C@@H](Nc1nc(Nc2cn[nH]c2)ncc1Cl)c1cccc(F)c1` [Compound 88], the IC50 on TYK2 and on JAK1 was 0.1 to 1 µM throughout.

Consider `CN(C)CCNC(=O)Cn1cc(Nc2ncc(Cl)c(N[C@H](CO)c3ccccc3)n2)cn1` [Compound 89], for which the IC50 on TYK2 and at JAK1 was 0.1 to 1 µM each time.

Consider `CN(C)CCCNC(=O)Cn1cc(Nc2ncc(Cl)c(N[C@H](CO)c3ccccc3)n2)cn1` [Compound 90], for which the IC50 on TYK2 and at JAK1 was 0.1 to 1 µM each time.

On to `Cn1cc(Nc2ncc(Cl)c(N[C@H](CO)c3cccnc3)n2)cn1` [Compound 91], for which the IC50 on TYK2 and on JAK1 was 0.1 to 1 µM each time.

Consider `OCCn1cc(Nc2ncc(Cl)c(N[C@H](CO)c3cccnc3)n2)cn1` [Compound 92], for which the IC50 on TYK2 and on JAK1 was 0.1 to 1 µM in each case.

Turning to `OCCn1cc(Nc2ncc(Cl)c(NC(CO)c3cccc(Br)c3)n2)cn1` (centres unmarked) [Compound 93], the IC50 on TYK2 was in the range of 0.1 to 1 µM; at JAK1 it was 1 to 10 µM.

The record behind these values is patent publication US20140179664A1, “Heterocyclyl Pyrimidine Analogues As JAK Inhibitors” (Cellzome Limited, priority 2011, published 2014).
